“Also recorded” adds a separate entry of the source.
Columns and labels:
Assay type in all cases: in vivo
C57BL/6JRj mice [1] = assay: Oral glucose tolerance test (OGTT) in healthy mice, single dose of OAS with the glucose load; conditions: single dose OAS 1000 mg/kg along with glucose 2.5 g/kg oral; vs control group
Experimental: Male C57BL/6JRj mice aged 7 weeks from Janvier Labs were fed with a conventional diet used in pet shops. A first group of 5 mice, not treated with OAS, served as a control group. A second group of 5 mice was treated with a single dose of OAS at 1000 mg/kg. The OAS used was the product sold under the name A6262 SIGMA by the company Sigma-Aldrich (CAS No. 66638-22-0). This group is the OAS treatment group. An oral glucose tolerance test (OGTT) was performed on each of the two groups of mice. This test consists of monitoring the plasma glucose concentrations for 120 min, after the mice have received an oral glucose load. Thus, at T0 (fasting blood glucose level), glucose (2.5 g/kg) is given orally to the animal. […] In the OGTT test, the OAS treatment group received a dose of 1000 mg/kg of OAS along with the oral glucose load. The control group received only the oral glucose load.

C57BL/6JRj mice [2] = assay: Oral glucose tolerance test (OGTT) in healthy mice after 5-day OAS treatment; conditions: OAS 1000 mg/kg daily for 5 days, vs control group; for area under the curve of the OGTT: glucose 2.5 g/kg oral
Experimental: Male C57BL/6JRj mice aged 7 weeks from Janvier Labs were fed with a conventional diet used in pet shops. A first group of 10 mice, not treated with OAS, served as a control group. A second group of 10 mice was treated with a daily dose of OAS at 1000 mg/kg for 5 days. The OAS used was the product sold under the name A6262_SIGMA by the company Sigma-Aldrich (CAS No. 66638-22-0). This group is the OAS treatment group. An oral glucose tolerance test (OGTT) was performed on each of the two groups of mice. This test consists of monitoring the plasma glucose concentrations for 120 min, after the mice have received an oral glucose load. Thus, at T0 (fasting blood glucose level), glucose (2.5 g/kg) is given orally to the animal. A drop of blood is taken from the tail every 15 to 30 minutes for 90 minutes to measure the blood glucose level with a strip glucose meter (Accu-Check Perfoma, available in pharmacies). The OGTT was performed on the fifth day of treatment 2 h after the OAS treatment group received a dose of 500 mg/kg. At the time of the OGTT, the mice of the treatment group also received 500 mg/kg of OAS along with the oral glucose load. The control group received only the oral glucose load.

[3] = Epididymal adipose tissue weight of HFD mice after 12 weeks of diet and treatment; conditions: after 12 weeks of HFD and OAS 200 mg/kg/d, ****p<0.0001
Experimental: Male C57BL/6JRj mice aged 7 weeks from Janvier Labs were fed a high fat diet (HFD, 45% fat and 20% sucrose) for 12 weeks. […] A first group of 10 mice fed this diet was treated with a daily dose of OAS of 200 mg/kg/d, at a frequency of 5 days per week during the 12 weeks of diet. The OAS used was the product sold as A6262_SIGMA by Sigma-Aldrich (CAS No. 66638-22-0). This group is the HFD+OAS group. […] This is the HFD group. […] These features are indicative of an establishment of obesity in the mice (FIG. 1).

[4] = tested on: C57BL/6JRj mice fed a high fat diet; assay: Oral glucose tolerance test (OGTT) in mice on high fat diet (HFD) treated with OAS
Experimental: Male C57BL/6JRj mice aged 7 weeks from Janvier Labs were fed a high fat diet (HFD, 45% fat and 20% sucrose) for 12 weeks. […] A first group of 10 mice fed this diet was treated with a daily dose of OAS of 200 mg/kg/d, at a frequency of 5 days per week during the 12 weeks of diet. The OAS used was the product sold as A6262_SIGMA by Sigma-Aldrich (CAS No. 66638-22-0). This group is the HFD+OAS group. […] This is the HFD group. […] An oral glucose tolerance test (OGTT) was performed on each of the three groups of mice. This test consists of monitoring the plasma glucose concentrations for 120 min, after the mice have received an oral glucose load. Thus, at T0 (fasting blood glucose), glucose (2 g/kg) is given orally to the animal. A drop of blood is taken from the tail every 30 minutes for 120 minutes so as to measure the blood glucose level with a strip glucose meter (Accu-Check Perfoma, available in pharmacies). Glucose tolerance is a reflection of the body's ability to regulate the return to a normal blood glucose level after a glucose load. The OGTT was performed at 5 weeks and 9 weeks after the start of the obesogenic diet. The results of this test show the installation of glucose intolerance as early as 5 weeks in the groups of mice on the HFD diet.

With `CC(=O)OC[C@H](N)C(=O)O` [OAS, O-acetylserine] the “area under the curve of the OGTT” value (C57BL/6JRj mice [1]) was “lower area under the curve than the control group; also recorded: significant”, the “blood glucose levels at 15 min after the oral glucose load” value (C57BL/6JRj mice [1]) was “significantly lower; also recorded: significantly decreases” and the “fasting blood glucose level” value (C57BL/6JRj mice [2]; conventional diet) was “tended to be lower; also recorded: decreases”. The “blood glucose levels after the oral glucose load (hyperglycemia induced by an oral glucose load)” value (C57BL/6JRj mice [2]; 15 min, 30 min and 60 min after glucose 2.5 g/kg oral) was “significantly lower; also recorded: significantly decreases; also recorded: significant”, the “area under the curve of the OGTT” value (C57BL/6JRj mice [2]) was “significant” and the “area under the curve of the OGTT” value (C57BL/6JRj mice [2]; listed as O-acetylserine) was “lower than that of the control group”. The “difference in epididymal adipose tissue weight between control group and HFD+OAS group” value [3] was “statistically significant”, the “effect on glucose intolerance (OGTT)” value ([4]; HFD mice, OAS 200 mg/kg/d 5 days per week, after 5 weeks) was “no visible effect” and the “glucose intolerance (OGTT)” value ([4]; HFD mice, OAS 200 mg/kg/d 5 days per week, after 9 weeks) was “significantly decreases”. The “difference in area under the curve of the OGTT between control group and HFD+OAS group” value ([4]; after 5 weeks, ****p<0.0001) was “significant”, the “difference in area under the curve of the OGTT between HFD group and HFD+OAS group” value ([4]; after 9 weeks, *p<0.05) was “significant” and the “difference in plasma glucose concentration between control group and HFD+OAS group” value ([4]; after 9 weeks, from t=60 min after oral glucose load) was “no longer significant”. The “difference in plasma glucose concentration between HFD group and HFD+OAS group” value ([4]; after 9 weeks, t=30 min after oral glucose load, p<0.0001) was “significant”.
